In ChEMBL document CHEMBL3991601, “The target landscape of clinical kinase drugs” (Science, 2017):
Activity calls are given as the source filed them.

Assays:
[1] = target: Serine/threonine-protein kinase Nek7 (Homo sapiens, UniProt Q8TDX7)
[2] = target: Proto-oncogene tyrosine-protein kinase receptor Ret (Homo sapiens, UniProt P07949)
[3] = target: Cell division cycle 7-related protein kinase (Homo sapiens, UniProt O00311)
[4] = target: High affinity nerve growth factor receptor (Homo sapiens, UniProt P04629)
Sequence of High affinity nerve growth factor receptor (P04629 whole entry): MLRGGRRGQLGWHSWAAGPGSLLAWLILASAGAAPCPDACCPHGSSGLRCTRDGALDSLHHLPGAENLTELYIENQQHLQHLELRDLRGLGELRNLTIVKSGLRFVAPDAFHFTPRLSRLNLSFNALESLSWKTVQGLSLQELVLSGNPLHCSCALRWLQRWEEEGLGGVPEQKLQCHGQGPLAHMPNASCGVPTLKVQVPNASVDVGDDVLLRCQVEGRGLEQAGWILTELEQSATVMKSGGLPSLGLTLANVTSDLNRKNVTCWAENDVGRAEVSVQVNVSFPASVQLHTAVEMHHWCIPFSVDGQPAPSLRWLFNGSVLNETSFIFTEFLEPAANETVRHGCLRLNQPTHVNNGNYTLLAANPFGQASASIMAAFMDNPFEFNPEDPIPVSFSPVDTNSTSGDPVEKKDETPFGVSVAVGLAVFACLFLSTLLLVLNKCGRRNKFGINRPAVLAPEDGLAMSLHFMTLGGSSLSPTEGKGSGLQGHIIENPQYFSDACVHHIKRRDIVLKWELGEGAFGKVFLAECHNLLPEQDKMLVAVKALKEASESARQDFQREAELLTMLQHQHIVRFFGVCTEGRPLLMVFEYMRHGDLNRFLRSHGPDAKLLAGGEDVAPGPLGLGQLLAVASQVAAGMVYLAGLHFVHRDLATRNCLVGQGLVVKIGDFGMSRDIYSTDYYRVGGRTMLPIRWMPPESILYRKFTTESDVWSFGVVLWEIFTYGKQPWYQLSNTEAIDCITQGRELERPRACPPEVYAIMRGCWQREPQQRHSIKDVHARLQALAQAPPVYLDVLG

[5] = target: T1, Isoleucine--tRNA ligase, mitochondrial (Homo sapiens, UniProt Q9NSE4)
T1 sequence (Q9NSE4 whole entry): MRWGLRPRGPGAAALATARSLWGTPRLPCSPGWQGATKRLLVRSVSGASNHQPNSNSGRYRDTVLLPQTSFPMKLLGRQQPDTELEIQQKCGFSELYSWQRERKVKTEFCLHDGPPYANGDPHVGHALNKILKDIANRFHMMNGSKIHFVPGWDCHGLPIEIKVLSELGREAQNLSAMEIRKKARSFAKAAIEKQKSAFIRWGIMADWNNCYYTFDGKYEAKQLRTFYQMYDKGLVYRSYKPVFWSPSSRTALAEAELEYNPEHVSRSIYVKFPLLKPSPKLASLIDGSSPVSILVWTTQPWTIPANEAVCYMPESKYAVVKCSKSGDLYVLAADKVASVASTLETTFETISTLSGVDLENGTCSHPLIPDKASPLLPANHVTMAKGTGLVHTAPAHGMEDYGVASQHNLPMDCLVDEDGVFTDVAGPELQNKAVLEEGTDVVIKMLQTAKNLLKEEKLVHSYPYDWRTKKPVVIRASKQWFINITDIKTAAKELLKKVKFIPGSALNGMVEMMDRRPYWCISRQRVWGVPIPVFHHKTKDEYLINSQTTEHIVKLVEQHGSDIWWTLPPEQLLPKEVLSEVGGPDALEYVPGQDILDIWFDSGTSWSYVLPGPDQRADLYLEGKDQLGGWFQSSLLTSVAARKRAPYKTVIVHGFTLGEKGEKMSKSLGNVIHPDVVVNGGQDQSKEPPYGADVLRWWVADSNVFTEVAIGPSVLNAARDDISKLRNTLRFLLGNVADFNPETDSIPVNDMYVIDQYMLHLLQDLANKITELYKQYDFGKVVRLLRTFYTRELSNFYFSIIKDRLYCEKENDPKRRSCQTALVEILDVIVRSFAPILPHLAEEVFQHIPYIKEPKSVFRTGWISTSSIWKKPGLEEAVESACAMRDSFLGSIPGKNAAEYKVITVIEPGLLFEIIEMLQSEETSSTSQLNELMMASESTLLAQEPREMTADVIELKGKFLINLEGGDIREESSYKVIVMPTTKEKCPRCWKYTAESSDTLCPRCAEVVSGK

UMP-CMP kinase = target: T2, UMP-CMP kinase (Homo sapiens, UniProt P30085)
T2 sequence (P30085 whole entry): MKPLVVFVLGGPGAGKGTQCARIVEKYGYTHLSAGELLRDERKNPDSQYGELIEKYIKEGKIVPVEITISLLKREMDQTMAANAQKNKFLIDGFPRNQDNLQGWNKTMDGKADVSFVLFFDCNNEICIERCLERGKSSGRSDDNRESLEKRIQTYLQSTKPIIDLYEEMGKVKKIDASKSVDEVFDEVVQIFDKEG

[6] = target: Membrane-associated progesterone receptor component 1 (Homo sapiens, UniProt O00264)
[7] = target: Rho-associated protein kinase 1 (Homo sapiens, UniProt Q13464)
Sequence of Rho-associated protein kinase 1 (Q13464 whole entry): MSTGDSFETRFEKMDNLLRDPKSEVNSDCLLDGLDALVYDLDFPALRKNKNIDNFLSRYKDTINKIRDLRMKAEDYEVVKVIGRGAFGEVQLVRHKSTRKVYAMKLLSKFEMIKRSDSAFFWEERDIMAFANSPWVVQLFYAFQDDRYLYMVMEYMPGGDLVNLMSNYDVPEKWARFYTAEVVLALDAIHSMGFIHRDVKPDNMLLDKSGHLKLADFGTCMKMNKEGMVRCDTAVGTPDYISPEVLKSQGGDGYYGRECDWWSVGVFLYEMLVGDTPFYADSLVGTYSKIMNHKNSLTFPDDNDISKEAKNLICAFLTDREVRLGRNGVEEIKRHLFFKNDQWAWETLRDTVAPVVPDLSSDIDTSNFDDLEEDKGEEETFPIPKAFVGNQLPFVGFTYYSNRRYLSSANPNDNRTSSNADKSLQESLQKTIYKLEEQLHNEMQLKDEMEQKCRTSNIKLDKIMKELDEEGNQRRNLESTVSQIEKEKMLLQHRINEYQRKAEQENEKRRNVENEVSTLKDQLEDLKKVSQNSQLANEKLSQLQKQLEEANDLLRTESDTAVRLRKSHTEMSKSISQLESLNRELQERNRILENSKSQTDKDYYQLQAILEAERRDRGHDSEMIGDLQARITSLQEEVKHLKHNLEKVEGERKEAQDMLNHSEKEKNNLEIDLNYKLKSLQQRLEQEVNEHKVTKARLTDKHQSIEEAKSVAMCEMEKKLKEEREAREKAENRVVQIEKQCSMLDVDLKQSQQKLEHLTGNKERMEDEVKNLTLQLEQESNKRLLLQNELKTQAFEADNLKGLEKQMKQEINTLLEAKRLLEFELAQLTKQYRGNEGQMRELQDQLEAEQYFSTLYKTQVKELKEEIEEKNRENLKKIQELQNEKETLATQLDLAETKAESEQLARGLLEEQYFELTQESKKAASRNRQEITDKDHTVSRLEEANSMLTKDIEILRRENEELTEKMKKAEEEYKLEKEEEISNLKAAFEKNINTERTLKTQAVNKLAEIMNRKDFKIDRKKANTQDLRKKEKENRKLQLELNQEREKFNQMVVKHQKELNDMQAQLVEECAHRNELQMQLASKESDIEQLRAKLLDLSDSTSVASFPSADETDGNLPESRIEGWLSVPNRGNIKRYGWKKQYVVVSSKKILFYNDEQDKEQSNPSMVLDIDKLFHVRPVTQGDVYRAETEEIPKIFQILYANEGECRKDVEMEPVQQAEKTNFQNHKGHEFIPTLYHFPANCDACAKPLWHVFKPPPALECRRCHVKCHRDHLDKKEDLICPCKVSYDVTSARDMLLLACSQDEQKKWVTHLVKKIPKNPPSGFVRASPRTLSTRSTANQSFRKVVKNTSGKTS

[8] = target: Serine/threonine-protein kinase pim-2 (Homo sapiens, UniProt Q9P1W9)
[9] = target: Serine/threonine-protein kinase 24 (Homo sapiens, UniProt Q9Y6E0)
Sequence of Serine/threonine-protein kinase 24 (Q9Y6E0 whole entry): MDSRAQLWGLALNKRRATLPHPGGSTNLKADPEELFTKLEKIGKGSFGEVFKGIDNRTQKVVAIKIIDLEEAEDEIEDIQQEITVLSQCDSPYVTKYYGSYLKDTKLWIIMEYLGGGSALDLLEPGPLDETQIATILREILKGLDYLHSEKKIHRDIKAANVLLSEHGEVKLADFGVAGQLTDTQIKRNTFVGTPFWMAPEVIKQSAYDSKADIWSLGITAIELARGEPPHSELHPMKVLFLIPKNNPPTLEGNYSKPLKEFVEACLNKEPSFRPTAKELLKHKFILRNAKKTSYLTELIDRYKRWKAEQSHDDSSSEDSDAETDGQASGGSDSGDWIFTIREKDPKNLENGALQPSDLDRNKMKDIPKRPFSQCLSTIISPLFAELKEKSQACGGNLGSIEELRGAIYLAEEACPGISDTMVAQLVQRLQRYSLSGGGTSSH

[10] = target: Serine/threonine-protein kinase ATR (Homo sapiens, UniProt Q13535)
[11] = target: Dual specificity protein kinase CLK4 (Homo sapiens, UniProt Q9HAZ1)
Sequence of Dual specificity protein kinase CLK4 (Q9HAZ1 whole entry): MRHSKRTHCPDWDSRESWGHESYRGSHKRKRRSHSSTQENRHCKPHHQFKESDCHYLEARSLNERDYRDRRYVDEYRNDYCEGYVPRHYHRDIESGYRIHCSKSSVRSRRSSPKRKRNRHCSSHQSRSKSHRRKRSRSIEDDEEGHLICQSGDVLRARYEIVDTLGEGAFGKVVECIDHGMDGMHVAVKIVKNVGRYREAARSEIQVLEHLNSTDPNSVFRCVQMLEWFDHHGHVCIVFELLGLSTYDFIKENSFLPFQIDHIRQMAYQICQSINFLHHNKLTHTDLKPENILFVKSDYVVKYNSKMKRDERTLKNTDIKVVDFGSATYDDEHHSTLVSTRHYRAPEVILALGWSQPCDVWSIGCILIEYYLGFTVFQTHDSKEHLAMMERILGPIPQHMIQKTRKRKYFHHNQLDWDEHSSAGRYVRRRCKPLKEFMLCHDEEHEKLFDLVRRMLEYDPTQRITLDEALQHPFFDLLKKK

[12] = target: T3, ATP-dependent RNA helicase DHX30 (Homo sapiens, UniProt Q7L2E3)
T3 sequence (Q7L2E3 whole entry): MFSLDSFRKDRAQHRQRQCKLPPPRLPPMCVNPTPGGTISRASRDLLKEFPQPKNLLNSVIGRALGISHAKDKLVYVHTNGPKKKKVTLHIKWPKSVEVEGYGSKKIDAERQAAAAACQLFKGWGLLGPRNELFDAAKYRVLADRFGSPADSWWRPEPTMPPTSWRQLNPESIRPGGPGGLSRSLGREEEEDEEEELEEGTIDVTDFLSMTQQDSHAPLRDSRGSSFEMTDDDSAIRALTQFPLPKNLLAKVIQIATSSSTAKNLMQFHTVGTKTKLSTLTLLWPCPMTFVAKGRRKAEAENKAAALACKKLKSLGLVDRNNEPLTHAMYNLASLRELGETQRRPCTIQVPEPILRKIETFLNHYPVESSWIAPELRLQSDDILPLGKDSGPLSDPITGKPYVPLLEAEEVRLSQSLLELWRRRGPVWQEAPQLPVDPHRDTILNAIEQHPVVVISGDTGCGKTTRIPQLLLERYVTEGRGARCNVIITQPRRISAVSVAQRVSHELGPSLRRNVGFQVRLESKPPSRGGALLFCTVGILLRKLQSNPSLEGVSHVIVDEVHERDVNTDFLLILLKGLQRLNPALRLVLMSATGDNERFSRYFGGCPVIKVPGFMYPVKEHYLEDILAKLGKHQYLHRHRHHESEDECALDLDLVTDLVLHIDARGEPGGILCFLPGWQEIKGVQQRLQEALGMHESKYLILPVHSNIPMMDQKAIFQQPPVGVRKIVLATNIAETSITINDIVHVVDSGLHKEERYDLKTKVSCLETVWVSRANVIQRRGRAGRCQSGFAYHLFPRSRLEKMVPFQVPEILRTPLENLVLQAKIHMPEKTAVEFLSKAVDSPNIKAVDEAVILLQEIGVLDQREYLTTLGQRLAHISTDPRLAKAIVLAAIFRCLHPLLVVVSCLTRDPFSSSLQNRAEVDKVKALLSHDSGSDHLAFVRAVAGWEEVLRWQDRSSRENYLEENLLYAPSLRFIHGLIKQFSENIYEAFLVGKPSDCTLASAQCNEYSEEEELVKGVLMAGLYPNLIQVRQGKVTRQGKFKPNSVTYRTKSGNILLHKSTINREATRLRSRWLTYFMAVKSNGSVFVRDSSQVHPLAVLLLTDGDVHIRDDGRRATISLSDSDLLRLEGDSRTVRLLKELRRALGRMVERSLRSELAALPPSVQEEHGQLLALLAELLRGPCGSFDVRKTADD
Further: in the data inactive means no Kd found up to 30 µM.

Sequence of Proto-oncogene tyrosine-protein kinase receptor Ret (P07949 whole entry): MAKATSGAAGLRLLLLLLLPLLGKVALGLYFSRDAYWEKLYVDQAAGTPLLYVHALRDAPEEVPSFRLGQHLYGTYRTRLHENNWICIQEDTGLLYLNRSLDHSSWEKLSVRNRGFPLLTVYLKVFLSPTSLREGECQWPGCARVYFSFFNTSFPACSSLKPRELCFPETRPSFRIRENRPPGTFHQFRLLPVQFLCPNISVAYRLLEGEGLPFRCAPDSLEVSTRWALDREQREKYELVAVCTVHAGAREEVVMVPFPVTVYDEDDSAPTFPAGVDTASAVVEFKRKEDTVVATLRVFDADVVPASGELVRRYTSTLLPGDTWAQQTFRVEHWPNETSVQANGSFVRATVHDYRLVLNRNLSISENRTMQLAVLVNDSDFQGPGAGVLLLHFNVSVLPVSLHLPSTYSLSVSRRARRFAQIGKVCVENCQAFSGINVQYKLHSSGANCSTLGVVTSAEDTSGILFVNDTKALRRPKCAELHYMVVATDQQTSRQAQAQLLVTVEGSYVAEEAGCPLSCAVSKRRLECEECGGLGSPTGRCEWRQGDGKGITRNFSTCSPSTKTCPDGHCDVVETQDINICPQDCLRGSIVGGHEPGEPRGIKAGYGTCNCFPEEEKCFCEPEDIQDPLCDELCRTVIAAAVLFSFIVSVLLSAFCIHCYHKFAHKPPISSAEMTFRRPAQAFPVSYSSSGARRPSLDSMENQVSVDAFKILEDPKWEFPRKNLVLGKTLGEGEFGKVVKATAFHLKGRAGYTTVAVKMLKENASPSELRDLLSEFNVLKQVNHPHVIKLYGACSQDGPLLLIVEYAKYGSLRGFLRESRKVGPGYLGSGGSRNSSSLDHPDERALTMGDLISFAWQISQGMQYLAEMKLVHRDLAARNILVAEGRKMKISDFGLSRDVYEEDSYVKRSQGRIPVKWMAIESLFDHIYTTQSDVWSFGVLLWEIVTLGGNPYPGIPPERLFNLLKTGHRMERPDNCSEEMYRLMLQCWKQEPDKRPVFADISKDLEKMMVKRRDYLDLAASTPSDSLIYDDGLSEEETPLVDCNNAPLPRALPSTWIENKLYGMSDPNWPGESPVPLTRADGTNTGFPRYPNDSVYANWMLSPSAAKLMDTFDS
Sequence of Serine/threonine-protein kinase Nek7 (Q8TDX7 whole entry): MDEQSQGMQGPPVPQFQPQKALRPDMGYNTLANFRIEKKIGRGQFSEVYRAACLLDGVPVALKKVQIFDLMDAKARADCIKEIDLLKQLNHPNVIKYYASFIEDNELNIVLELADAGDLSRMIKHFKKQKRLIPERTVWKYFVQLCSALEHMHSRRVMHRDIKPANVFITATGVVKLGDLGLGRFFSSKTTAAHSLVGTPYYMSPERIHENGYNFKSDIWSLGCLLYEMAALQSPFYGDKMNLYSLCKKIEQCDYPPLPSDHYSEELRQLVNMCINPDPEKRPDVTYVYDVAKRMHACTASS
Sequence of Cell division cycle 7-related protein kinase (O00311 whole entry): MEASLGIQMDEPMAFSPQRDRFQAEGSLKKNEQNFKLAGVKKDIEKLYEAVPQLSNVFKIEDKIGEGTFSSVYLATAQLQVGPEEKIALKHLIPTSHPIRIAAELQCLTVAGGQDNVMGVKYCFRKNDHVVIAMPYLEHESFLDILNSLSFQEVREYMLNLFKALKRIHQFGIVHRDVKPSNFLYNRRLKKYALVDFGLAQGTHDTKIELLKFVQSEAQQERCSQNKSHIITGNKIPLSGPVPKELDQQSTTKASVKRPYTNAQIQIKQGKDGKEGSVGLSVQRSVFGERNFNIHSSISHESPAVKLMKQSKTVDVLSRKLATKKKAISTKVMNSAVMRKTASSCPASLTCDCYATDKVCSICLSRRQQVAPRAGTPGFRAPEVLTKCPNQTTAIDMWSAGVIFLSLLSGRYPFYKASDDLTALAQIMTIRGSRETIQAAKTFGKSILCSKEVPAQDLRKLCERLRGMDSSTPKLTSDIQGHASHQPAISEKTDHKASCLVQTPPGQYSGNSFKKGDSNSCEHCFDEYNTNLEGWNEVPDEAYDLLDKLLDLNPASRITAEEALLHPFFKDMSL

Kd [1]	Kd [2]	Kd [3]	Kd [4]	Kd [5]	Kd (UMP-CMP kinase)	Kd [6]	Kd [7]	Kd [8]	Kd [9]	Kd [10]	Kd [11]	Kd [12]	Compound
> 30 µM (inactive)	> 30 µM (inactive)	> 30 µM (inactive)	> 30 µM (inactive)	> 30 µM (inactive)	> 30 µM (inactive)	> 30 µM (inactive)	> 30 µM (inactive)	> 30 µM (inactive)	–	–	–	–	COc1ccc(-c2ccc3ncc4c(c3c2)n(-c2ccc(N3CCNCC3)c(C(F)(F)F)c2)c(=O)n4C)cn1 [BGT-226 FREE BASE]
> 30 µM (inactive)	0.238 µM (active)	> 30 µM (inactive)	> 30 µM (inactive)	> 30 µM (inactive)	> 30 µM (inactive)	> 30 µM (inactive)	> 30 µM (inactive)	> 30 µM (inactive)	> 30 µM (inactive)	> 30 µM (inactive)	> 30 µM (inactive)	> 30 µM (inactive)	Cc1cc(Nc2nc(N[C@@H](C)c3ncc(F)cn3)ncc2Cl)n[nH]1 [AZD-1480]
> 30 µM (inactive)	> 30 µM (inactive)	–	> 30 µM (inactive)	–	> 30 µM (inactive)	> 30 µM (inactive)	–	> 30 µM (inactive)	> 30 µM (inactive)	> 30 µM (inactive)	> 30 µM (inactive)	–	O=S(=O)(c1cccc2c(O)nccc12)N1CCCNCC1 [HYDROXYFASUDIL]
> 30 µM (inactive)	> 30 µM (inactive)	> 30 µM (inactive)	> 30 µM (inactive)	–	> 30 µM (inactive)	–	> 30 µM (inactive)	> 30 µM (inactive)	–	–	–	> 30 µM (inactive)	COc1cc2ncnc(Nc3ccc(F)c(Cl)c3)c2cc1NC(=O)/C=C/CN1CCCCC1 [DACOMITINIB ANHYDROUS]
> 30 µM (inactive)	> 30 µM (inactive)	> 30 µM (inactive)	> 30 µM (inactive)	> 30 µM (inactive)	> 30 µM (inactive)	> 30 µM (inactive)	> 30 µM (inactive)	> 30 µM (inactive)	> 30 µM (inactive)	> 30 µM (inactive)	> 30 µM (inactive)	> 30 µM (inactive)	C#Cc1cccc(Nc2ncnc3cc4c(cc23)OCCOCCOCCO4)c1 [ICOTINIB]
> 30 µM (inactive)	21.9 µM (active)	–	> 30 µM (inactive)	–	> 30 µM (inactive)	> 30 µM (inactive)	> 30 µM (inactive)	> 30 µM (inactive)	> 30 µM (inactive)	> 30 µM (inactive)	> 30 µM (inactive)	> 30 µM (inactive)	COc1cc2ncnc(Nc3ccc(O)cc3)c2cc1OC [WHI-P131]

Compound	Kd [1]	Kd [2]	Kd [3]	Kd [4]	Kd [5]	Kd (UMP-CMP kinase)	Kd [6]	Kd [7]	Kd [8]	Kd [9]	Kd [10]	Kd [11]	Kd [12]
N#CCNC(=O)c1ccc(-c2ccnc(Nc3ccc(N4CCOCC4)cc3)n2)cc1 [MOMELOTINIB]	> 30 µM (inactive)	–	–	> 30 µM (inactive)	> 30 µM (inactive)	> 30 µM (inactive)	> 30 µM (inactive)	1.36 µM (active)	> 30 µM (inactive)	–	–	–	–
CC(C)CC(=O)Nc1[nH]nc2c1CN(C(=O)C1CCN(C)CC1)C2(C)C [PHA-793887]	> 30 µM (inactive)	–	> 30 µM (inactive)	> 30 µM (inactive)	> 30 µM (inactive)	> 30 µM (inactive)	> 30 µM (inactive)	–	> 30 µM (inactive)	–	–	–	–
